From patent publication US12559474B2, “Triazine derivatives having virus replication inhibitory activity and pharmaceutical composition comprising the same” (priority 2021, dated 2026)
Read-outs that look alike come from different tables or passages of the source.

How the values were obtained:
SARS-CoV-2 3CL protease = SARS-CoV-2 3CL protease (Severe acute respiratory syndrome coronavirus 2, UniProt P0DTD1); test: biochemical; details: 50% SARS-CoV-2 3CL protease inhibitory concentration, read-out: IC50
SARS-CoV-2 = test: microbe, parasite or virus in culture; assay type: cell-based; details: Severe acute respiratory syndrome coronavirus 2, VeroE6/TMPRSS2, 72 h, 50% SARS-CoV-2 infected cell death inhibitory concentration, VeroE6/TMPRSS2 cells, 3 days culture

## COC(=O)Nc1nc2cc(Cl)c(Nc3nc(=O)n(-c4cncc(C)c4)c(=O)n3Cc3ccc(F)c(C#N)c3)cc2s1 [II-0074]
SARS-CoV-2 3CL protease; RapidFire MS
  IC50: 3.6 nM
SARS-CoV-2; CellTiter-Glo 2.0
  EC50: 248 nM

## CCc1cc(F)c(F)cc1Cn1c(Nc2cc3cn(C)nc3cc2Cl)nc(=O)n(-c2cncc(C)c2)c1=O [II-0068]
SARS-CoV-2 3CL protease; given as class symbols
  IC50: < 100 nM
SARS-CoV-2; class symbols
  EC50: < 1000 nM

## CCNc1nc2cc(Cl)c(Nc3nc(=O)n(Cc4ccc[nH]c4=O)c(=O)n3Cc3cc(F)c(F)c(F)c3)cc2s1 [Compound I-0468]
SARS-CoV-2 3CL protease; given as class symbols
  IC50: < 100 nM
SARS-CoV-2; class symbols
  EC50: 1000 to 10000 nM

## Cn1cc2cc(Nc3nc(=O)n(-c4cncc(Cl)c4)c(=O)n3Cc3ccc(F)c(C#N)c3)c(F)cc2n1 [II-0525]
SARS-CoV-2 3CL protease; RapidFire MS
  IC50: 16 nM
SARS-CoV-2; CellTiter-Glo 2.0
  EC50: 533 nM

## Cc1cncc(-n2c(=O)nc(Nc3cc4cn(C)nc4cc3Cl)n(Cc3cc(C#N)c(F)cc3Cl)c2=O)c1 [II-0087]
SARS-CoV-2 3CL protease; RapidFire MS
  IC50: 2.5 nM
SARS-CoV-2; CellTiter-Glo 2.0
  EC50: 69 nM

## Cc1cncc(-n2c(=O)nc(Nc3cc4cn(C)nc4cc3Cl)n(Cc3cc(F)c(F)c(F)c3F)c2=O)c1 [II-0164]
SARS-CoV-2 3CL protease; RapidFire MS
  IC50: 9 nM
SARS-CoV-2; CellTiter-Glo 2.0
  EC50: 195 nM

## Cc1cncc(-n2c(=O)nc(Nc3cc4cn(C)nc4cc3Cl)n(Cc3cc(C#N)ccc3[N+](=O)[O-])c2=O)c1 [II-0580]
SARS-CoV-2 3CL protease; given as class symbols
  IC50: < 100 nM
SARS-CoV-2; class symbols
  EC50: < 1000 nM

## Cn1cnc(Cn2c(=O)nc(Nc3cc4cn(C)nc4cc3Cl)n(Cc3ccc(F)c(Br)c3)c2=O)n1 [II-0179]
SARS-CoV-2 3CL protease; given as class symbols
  IC50: < 100 nM
SARS-CoV-2; class symbols
  EC50: 1000 to 10000 nM

## O=c1nc(Nc2cc3sc(NC4CC4)nc3cc2Cl)n(Cc2cc(Cl)c(F)cc2F)c(=O)n1Cc1ncccn1 [II-0237]
SARS-CoV-2 3CL protease; given as class symbols
  IC50: < 100 nM
SARS-CoV-2; class symbols
  EC50: < 1000 nM

## Cn1cc2cc(Nc3nc(=O)n(Cc4ccc[nH]c4=O)c(=O)n3Cc3cc(F)cc(Cl)c3)c(Cl)cc2n1 [Compound I-0008]
SARS-CoV-2 3CL protease; given as class symbols
  IC50: < 100 nM
SARS-CoV-2; class symbols
  EC50: 1000 to 10000 nM

## Cc1cncc(-n2c(=O)nc(Nc3cc4cn(CC(F)F)nc4cc3Cl)n(Cc3cc(F)c(F)c(C#N)c3)c2=O)c1 [II-0568]
SARS-CoV-2 3CL protease; RapidFire MS
  IC50: 2.1 nM
SARS-CoV-2; CellTiter-Glo 2.0
  EC50: 132 nM

## Cc1cncc(-n2c(=O)nc(Nc3cc4cn(CC(F)F)nc4cc3F)n(Cc3ccc(F)c(C#N)c3)c2=O)c1 [II-0439]
SARS-CoV-2 3CL protease; given as class symbols
  IC50: < 100 nM
SARS-CoV-2; class symbols
  EC50: < 1000 nM

## Cc1cncc(-n2c(=O)nc(Nc3ccc4nn(CC(F)(F)F)cc4c3)n(Cc3cc(C#N)ccc3C)c2=O)c1 [II-0299]
SARS-CoV-2 3CL protease; RapidFire MS
  IC50: 3.3 nM
SARS-CoV-2; CellTiter-Glo 2.0
  EC50: 202 nM

## Cn1cnc(Cn2c(=O)nc(Nc3cc4cn(C)nc4cc3Cl)n(Cc3cc(Cl)ccc3Cl)c2=O)n1 [II-0591]
SARS-CoV-2 3CL protease; given as class symbols
  IC50: < 100 nM
SARS-CoV-2; class symbols
  EC50: < 1000 nM

## Cc1cncc(-n2c(=O)nc(Nc3cc4cccnc4cc3Cl)n(Cc3ccc(F)c(C#N)c3)c2=O)c1 [II-0463]
SARS-CoV-2 3CL protease; given as class symbols
  IC50: < 100 nM
SARS-CoV-2; class symbols
  EC50: < 1000 nM

## COc1ccc(Nc2nc(=O)n(Cc3cc(C(F)(F)F)c[nH]c3=O)c(=O)n2Cc2cc(F)c(F)c(F)c2)cc1 [Compound I-0307]
SARS-CoV-2 3CL protease; given as class symbols
  IC50: 100 to 1000 nM
SARS-CoV-2 3CL protease; RapidFire MS
  IC50: 440 nM
SARS-CoV-2; class symbols
  EC50: < 1000 nM

## Cc1cncc(-n2c(=O)nc(Nc3cc4sc(NCC(F)F)nc4cc3Cl)n(Cc3cc(F)c(F)c(C#N)c3)c2=O)c1 [II-0498]
SARS-CoV-2 3CL protease; given as class symbols
  IC50: < 100 nM
SARS-CoV-2; class symbols
  EC50: 1000 to 10000 nM

## Cn1cc2cc(Nc3nc(=O)n(-c4cncc(C5CC5)c4)c(=O)n3Cc3ccc(F)c(C#N)c3)ccc2n1 [II-0388]
SARS-CoV-2 3CL protease; given as class symbols
  IC50: < 100 nM
SARS-CoV-2; class symbols
  EC50: < 1000 nM

## Cc1cncc(-n2c(=O)nc(N3CCC(C)(C)CC3)n(Cc3cc(F)c(F)c(F)c3)c2=O)c1 [II-0222]
SARS-CoV-2 3CL protease; given as class symbols
  IC50: < 100 nM
SARS-CoV-2; class symbols
  EC50: < 1000 nM

## CNc1nc2cc(Cl)c(Nc3nc(=O)n(-c4cncc(C)c4)c(=O)n3Cc3cc(F)c(F)c(F)c3)cc2s1 [II-0318]
SARS-CoV-2 3CL protease; given as class symbols
  IC50: < 100 nM
SARS-CoV-2; class symbols
  EC50: < 1000 nM

## Cc1cncc(-n2c(=O)nc(Nc3ccc4nc(C)n(C)c4c3)n(Cc3ccc(F)c(C#N)c3)c2=O)c1 [II-0354]
SARS-CoV-2 3CL protease; given as class symbols
  IC50: < 100 nM
SARS-CoV-2; class symbols
  EC50: 1000 to 10000 nM

## Cc1cncc(-n2c(=O)nc(Nc3ccc4nc(NCC(F)(F)F)sc4c3)n(Cc3cc(F)c(F)c(C#N)c3)c2=O)c1 [II-0295]
SARS-CoV-2 3CL protease; given as class symbols
  IC50: < 100 nM
SARS-CoV-2; class symbols
  EC50: 1000 to 10000 nM

## COc1ccc(Nc2nc(=O)n(Cc3ccc[nH]c3=O)c(=O)n2Cc2cc(F)c(F)c(Cl)c2)c(Cl)c1 [Compound I-0255]
SARS-CoV-2 3CL protease; given as class symbols
  IC50: < 100 nM
SARS-CoV-2; class symbols
  EC50: < 1000 nM

## Cc1cncc(-n2c(=O)nc(Nc3cc4cn(C)nc4cc3Br)n(Cc3ccc(F)c(C#N)c3)c2=O)c1 [II-0167]
SARS-CoV-2 3CL protease; given as class symbols
  IC50: < 100 nM
SARS-CoV-2; class symbols
  EC50: < 1000 nM

## COc1ccc(Nc2nc(=O)n(-c3nncc4cnn(C)c34)c(=O)n2Cc2cc(F)c(F)c(F)c2)cc1 [II-0401]
SARS-CoV-2 3CL protease; RapidFire MS
  IC50: 290 nM
SARS-CoV-2; CellTiter-Glo 2.0
  EC50: 2330 nM

## Cn1cnc(Cn2c(=O)nc(Nc3cc4c(cc3Cl)OCC4)n(Cc3cc(F)c(F)c(Cl)c3)c2=O)n1 [II-0046]
SARS-CoV-2 3CL protease; given as class symbols
  IC50: < 100 nM
SARS-CoV-2; class symbols
  EC50: < 1000 nM

## Cc1cncc(-n2c(=O)nc(Nc3ccc4oc(C)c(C)c4c3)n(Cc3ccc(F)c(C#N)c3)c2=O)c1 [II-0195]
SARS-CoV-2 3CL protease; given as class symbols
  IC50: < 100 nM
SARS-CoV-2; class symbols
  EC50: 1000 to 10000 nM

## CCNC(=O)Cn1c(=O)nc(Nc2cc3cn(C)nc3cc2Cl)n(Cc2cc(F)c(F)c(F)c2)c1=O [II-0329]
SARS-CoV-2 3CL protease; RapidFire MS
  IC50: 140 nM
SARS-CoV-2; CellTiter-Glo 2.0
  EC50: 11500 nM

## Cc1cncc(-n2c(=O)nc(Nc3cc4cn(C)nc4cc3Cl)n(Cc3cc(F)c(F)cc3CCC(C)(C)O)c2=O)c1 [II-0073]
SARS-CoV-2 3CL protease; given as class symbols
  IC50: < 100 nM
SARS-CoV-2; class symbols
  EC50: 1000 to 10000 nM

## O=c1[nH]cc(Cn2c(=O)nc(Nc3cc4c(cc3Cl)OCC4)n(Cc3cc(F)c(F)c(F)c3)c2=O)c(=O)[nH]1 [Compound I-0406]
SARS-CoV-2 3CL protease; given as class symbols
  IC50: < 100 nM
SARS-CoV-2; class symbols
  EC50: 1000 to 10000 nM

## CC1(Cn2cc3cc(Nc4nc(=O)n(Cc5ccc[nH]c5=O)c(=O)n4Cc4cc(F)c(F)c(F)c4)c(Cl)cc3n2)COC1 [II-0099]
SARS-CoV-2 3CL protease; given as class symbols
  IC50: < 100 nM
SARS-CoV-2; class symbols
  EC50: 1000 to 10000 nM

## Cc1cc(F)c(C#N)cc1Cn1c(Nc2cc3cn(C)nc3cc2F)nc(=O)n(-c2cncc(Cl)c2)c1=O [II-0365]
SARS-CoV-2 3CL protease; given as class symbols
  IC50: < 100 nM
SARS-CoV-2; class symbols
  EC50: < 1000 nM

## CNc1nc2cc(Cl)c(Nc3nc(=O)n(Cc4ncn(C)n4)c(=O)n3Cc3cc(F)c(F)c(Cl)c3)cc2s1 [II-0235]
SARS-CoV-2 3CL protease; given as class symbols
  IC50: < 100 nM
SARS-CoV-2; class symbols
  EC50: 1000 to 10000 nM

## Cc1cncc(-n2c(=O)nc(Nc3ccc4nn(C)nc4c3)n(Cc3cc(F)c(F)c(F)c3)c2=O)c1 [II-0221]
SARS-CoV-2 3CL protease; given as class symbols
  IC50: < 100 nM
SARS-CoV-2; class symbols
  EC50: 1000 to 10000 nM

## Cn1cc2cc(Nc3nc(=O)n(-c4cncc(Cl)c4)c(=O)n3Cc3cc(F)c(F)c(Cl)c3)ccc2n1 [II-0109]
SARS-CoV-2 3CL protease; RapidFire MS
  IC50: 40 nM
SARS-CoV-2; CellTiter-Glo 2.0
  EC50: 798 nM

## COc1ccc(Nc2nc(=O)n(CC3CCNC3=O)c(=O)n2Cc2cc(F)c(F)c(F)c2)cc1 (racemic) [Compound I-0301]
SARS-CoV-2 3CL protease; given as class symbols
  IC50: 1000 to 10000 nM
SARS-CoV-2 3CL protease; RapidFire MS
  IC50: 3800 nM
SARS-CoV-2; class symbols
  EC50: < 1000 nM

## N#Cc1cc(F)cc(Cn2c(Nc3cc4c(cc3Cl)OCC4)nc(=O)n(Cc3ccc[nH]c3=O)c2=O)c1 [II-0029]
SARS-CoV-2 3CL protease; given as class symbols
  IC50: < 100 nM
SARS-CoV-2; class symbols
  EC50: 1000 to 10000 nM

## COc1ccc(Nc2nc(=O)n(Cc3ccc[nH]c3=O)c(=O)n2Cc2cc(F)c(F)c(F)c2)c(Br)c1 [Compound I-0166]
SARS-CoV-2 3CL protease; given as class symbols
  IC50: < 100 nM
SARS-CoV-2; class symbols
  EC50: < 1000 nM

## CC(C)(O)Cn1cc2cc(Nc3nc(=O)n(Cc4ncccn4)c(=O)n3Cc3cc(Cl)c(F)cc3F)c(Cl)cc2n1 [II-0240]
SARS-CoV-2 3CL protease; given as class symbols
  IC50: < 100 nM
SARS-CoV-2; class symbols
  EC50: 1000 to 10000 nM

## O=c1[nH]cccc1Cn1c(=O)nc(Nc2ccc(OC3CC3)cc2Cl)n(Cc2cc(F)c(F)c(F)c2)c1=O [Compound I-0392]
SARS-CoV-2 3CL protease; given as class symbols
  IC50: < 100 nM
SARS-CoV-2; class symbols
  EC50: 1000 to 10000 nM

## CNc1nc2ccc(Nc3nc(=O)n(-c4cncc(C)c4)c(=O)n3Cc3cc(F)c(F)c(C#N)c3)cc2s1 [II-0397]
SARS-CoV-2 3CL protease; given as class symbols
  IC50: < 100 nM
SARS-CoV-2; class symbols
  EC50: < 1000 nM

## C#Cc1cc(Cn2c(Nc3cc4cn(C)nc4cc3Cl)nc(=O)n(-c3cncc(C)c3)c2=O)ccc1F [II-0590]
SARS-CoV-2 3CL protease; given as class symbols
  IC50: < 100 nM
SARS-CoV-2; class symbols
  EC50: < 1000 nM

## COc1c2cc(Nc3nc(=O)n(Cc4ncn(C)n4)c(=O)n3Cc3cc(F)c(F)cc3F)c(Cl)cc2nn1C [II-0454]
SARS-CoV-2 3CL protease; given as class symbols
  IC50: < 100 nM
SARS-CoV-2; class symbols
  EC50: 1000 to 10000 nM
